In assay [1] the target is Serine/threonine-protein kinase tousled-like 2 (Homo sapiens) (UniProt Q86UE8). The settings on record: at 10 µM.
For assay [2], the target named is Serine/threonine-protein kinase PRP4 homolog (Homo sapiens) (UniProt Q13523). Briefly: Selectivity interaction (ActivX KiNativ screen (kinase selectivity in THP-1 cell lysates)) EUB0000639a PRPF4. In kind it is subcellular. The settings on record: lysate, at 5 µM.
The target in assay [3] is T1, Phosphatidylinositol 4,5-bisphosphate 3-kinase catalytic subunit delta isoform (Homo sapiens) (UniProt O00329).
T1 sequence (whole entry): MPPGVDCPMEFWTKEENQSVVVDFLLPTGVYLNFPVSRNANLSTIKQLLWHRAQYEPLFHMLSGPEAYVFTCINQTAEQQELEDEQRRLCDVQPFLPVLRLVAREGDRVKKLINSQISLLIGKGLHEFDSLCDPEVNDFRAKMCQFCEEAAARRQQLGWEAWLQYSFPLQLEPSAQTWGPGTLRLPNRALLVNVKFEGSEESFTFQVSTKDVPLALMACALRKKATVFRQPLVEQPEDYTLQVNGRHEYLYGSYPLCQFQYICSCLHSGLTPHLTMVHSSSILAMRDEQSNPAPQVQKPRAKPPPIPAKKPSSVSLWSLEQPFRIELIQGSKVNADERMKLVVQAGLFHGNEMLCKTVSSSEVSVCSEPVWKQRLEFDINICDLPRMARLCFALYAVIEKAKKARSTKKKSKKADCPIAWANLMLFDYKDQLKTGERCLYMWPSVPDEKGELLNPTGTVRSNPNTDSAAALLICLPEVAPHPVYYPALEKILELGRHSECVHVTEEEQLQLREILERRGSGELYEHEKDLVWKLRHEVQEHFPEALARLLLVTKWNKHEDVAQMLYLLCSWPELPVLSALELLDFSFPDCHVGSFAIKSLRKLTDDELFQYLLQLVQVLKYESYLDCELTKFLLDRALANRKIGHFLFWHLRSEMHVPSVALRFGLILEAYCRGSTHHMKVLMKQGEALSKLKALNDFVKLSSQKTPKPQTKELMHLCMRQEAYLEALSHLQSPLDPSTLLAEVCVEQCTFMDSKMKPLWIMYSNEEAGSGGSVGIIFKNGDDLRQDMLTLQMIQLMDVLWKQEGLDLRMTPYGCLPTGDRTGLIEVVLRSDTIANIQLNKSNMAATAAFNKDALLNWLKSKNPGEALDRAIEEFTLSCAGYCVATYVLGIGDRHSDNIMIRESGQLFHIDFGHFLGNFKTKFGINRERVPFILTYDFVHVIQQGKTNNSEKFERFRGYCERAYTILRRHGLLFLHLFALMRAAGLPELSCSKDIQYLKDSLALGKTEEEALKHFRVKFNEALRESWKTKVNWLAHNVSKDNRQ
Nature of the assay: Selectivity interaction (KinomeScan (DiscoverX)) EUB0000045b PIK3CD.

The target of assay [4] is Transcription intermediary factor 1-beta (Homo sapiens) (UniProt Q13263). Briefly: Selectivity interaction (Bromodomain panel (DSF asssay)) EUB0000270b TRIM28.
Assay [5] has as its target T2, Ephrin type-A receptor 1 (Homo sapiens) (UniProt P21709).
T2 sequence (whole entry): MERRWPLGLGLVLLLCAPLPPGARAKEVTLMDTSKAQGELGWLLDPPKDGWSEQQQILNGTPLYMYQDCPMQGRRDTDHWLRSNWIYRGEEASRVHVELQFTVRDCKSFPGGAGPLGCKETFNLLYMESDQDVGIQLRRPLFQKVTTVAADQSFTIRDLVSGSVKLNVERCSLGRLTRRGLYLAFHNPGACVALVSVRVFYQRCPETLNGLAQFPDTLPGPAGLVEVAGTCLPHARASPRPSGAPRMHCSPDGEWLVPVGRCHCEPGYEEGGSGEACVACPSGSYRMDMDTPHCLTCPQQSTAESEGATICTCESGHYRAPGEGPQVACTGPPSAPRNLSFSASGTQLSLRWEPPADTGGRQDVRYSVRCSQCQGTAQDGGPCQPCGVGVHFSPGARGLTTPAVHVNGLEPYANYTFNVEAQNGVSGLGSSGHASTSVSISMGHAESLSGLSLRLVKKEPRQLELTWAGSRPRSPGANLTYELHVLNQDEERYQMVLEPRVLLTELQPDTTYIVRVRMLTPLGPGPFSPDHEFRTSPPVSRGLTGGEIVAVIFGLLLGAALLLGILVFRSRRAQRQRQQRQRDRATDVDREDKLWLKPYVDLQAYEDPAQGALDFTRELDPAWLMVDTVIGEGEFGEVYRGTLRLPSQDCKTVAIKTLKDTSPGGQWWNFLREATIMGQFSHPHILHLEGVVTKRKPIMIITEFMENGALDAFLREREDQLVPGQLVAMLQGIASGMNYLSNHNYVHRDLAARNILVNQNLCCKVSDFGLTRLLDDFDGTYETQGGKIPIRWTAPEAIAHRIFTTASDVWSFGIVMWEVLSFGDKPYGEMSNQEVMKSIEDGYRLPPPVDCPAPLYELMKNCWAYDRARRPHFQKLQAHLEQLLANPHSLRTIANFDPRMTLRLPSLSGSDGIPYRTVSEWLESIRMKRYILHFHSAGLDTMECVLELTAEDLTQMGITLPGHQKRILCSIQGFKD
Briefly: Selectivity interaction (KinomeScan (DiscoverX)) EUB0000092b EPHA1. The settings on record: at 10 µM.

The target of assay [6] is Homeodomain-interacting protein kinase 1 (Homo sapiens, UniProt Q86Z02). Briefly: Selectivity interaction (KinomeScan (DiscoverX)) EUB0000092b HIPK1. The settings on record: at 10 µM.
The target in assay [7] is Protein arginine N-methyltransferase 5 (Homo sapiens, UniProt O14744). Briefly: Selectivity interaction (Methyltransferase screen (radiometric assays, panel of 8 PRMTs, 21 protein lysine methyltransferases, 3 DNA methyltransferases, and one RNA methyltransferase)) EUB0000271b PRMT5.
Assay [8] deals with Dual specificity protein kinase CLK3 (Homo sapiens, UniProt P49761). Briefly: Selectivity interaction (Kinase panel (KiNativ target engagement assay in Jurkat cells)) EUB0001635a CLK3. In kind it is cell-based. Conditions: Selectivity number of off-targets 0.0, Selectivity number of targets 233.0, Source Knowledge https://www.sciencedirect.com/science/article/pii/S2451945619300674?via%3Dihub, at 1 µM.
Chain of Dual specificity protein kinase CLK3 (P49761 whole entry, looked up): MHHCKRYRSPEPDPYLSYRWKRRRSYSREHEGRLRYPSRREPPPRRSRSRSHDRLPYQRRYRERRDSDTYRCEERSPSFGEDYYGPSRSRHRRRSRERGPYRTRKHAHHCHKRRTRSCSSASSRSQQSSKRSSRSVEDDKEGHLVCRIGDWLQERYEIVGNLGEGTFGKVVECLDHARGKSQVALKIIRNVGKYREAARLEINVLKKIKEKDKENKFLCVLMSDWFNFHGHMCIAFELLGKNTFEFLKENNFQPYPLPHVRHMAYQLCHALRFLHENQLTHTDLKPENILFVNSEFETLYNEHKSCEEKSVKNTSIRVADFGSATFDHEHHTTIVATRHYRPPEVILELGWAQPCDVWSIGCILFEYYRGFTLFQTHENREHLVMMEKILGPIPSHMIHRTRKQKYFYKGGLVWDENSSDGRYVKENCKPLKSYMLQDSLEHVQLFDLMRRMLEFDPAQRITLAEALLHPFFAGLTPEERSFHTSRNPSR

Chain of Protein arginine N-methyltransferase 5 (O14744 whole entry): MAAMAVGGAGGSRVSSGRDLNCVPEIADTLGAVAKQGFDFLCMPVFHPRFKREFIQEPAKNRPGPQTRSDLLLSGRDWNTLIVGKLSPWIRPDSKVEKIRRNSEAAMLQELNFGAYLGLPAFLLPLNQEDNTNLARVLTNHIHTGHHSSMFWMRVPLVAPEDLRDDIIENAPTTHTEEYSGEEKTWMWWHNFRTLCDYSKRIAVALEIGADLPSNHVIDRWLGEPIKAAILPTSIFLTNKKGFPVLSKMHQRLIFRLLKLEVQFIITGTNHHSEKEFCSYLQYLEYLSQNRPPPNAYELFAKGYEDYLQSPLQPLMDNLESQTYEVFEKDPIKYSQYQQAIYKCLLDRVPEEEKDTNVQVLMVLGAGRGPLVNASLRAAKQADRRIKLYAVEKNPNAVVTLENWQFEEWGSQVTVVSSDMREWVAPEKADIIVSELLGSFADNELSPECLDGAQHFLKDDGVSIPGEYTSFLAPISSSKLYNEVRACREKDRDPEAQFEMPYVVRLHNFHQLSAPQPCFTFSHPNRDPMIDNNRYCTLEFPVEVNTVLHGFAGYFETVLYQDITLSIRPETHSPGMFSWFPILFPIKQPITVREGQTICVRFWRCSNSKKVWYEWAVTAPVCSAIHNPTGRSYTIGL
Chain of Transcription intermediary factor 1-beta (Homo sapiens) (Q13263 whole entry): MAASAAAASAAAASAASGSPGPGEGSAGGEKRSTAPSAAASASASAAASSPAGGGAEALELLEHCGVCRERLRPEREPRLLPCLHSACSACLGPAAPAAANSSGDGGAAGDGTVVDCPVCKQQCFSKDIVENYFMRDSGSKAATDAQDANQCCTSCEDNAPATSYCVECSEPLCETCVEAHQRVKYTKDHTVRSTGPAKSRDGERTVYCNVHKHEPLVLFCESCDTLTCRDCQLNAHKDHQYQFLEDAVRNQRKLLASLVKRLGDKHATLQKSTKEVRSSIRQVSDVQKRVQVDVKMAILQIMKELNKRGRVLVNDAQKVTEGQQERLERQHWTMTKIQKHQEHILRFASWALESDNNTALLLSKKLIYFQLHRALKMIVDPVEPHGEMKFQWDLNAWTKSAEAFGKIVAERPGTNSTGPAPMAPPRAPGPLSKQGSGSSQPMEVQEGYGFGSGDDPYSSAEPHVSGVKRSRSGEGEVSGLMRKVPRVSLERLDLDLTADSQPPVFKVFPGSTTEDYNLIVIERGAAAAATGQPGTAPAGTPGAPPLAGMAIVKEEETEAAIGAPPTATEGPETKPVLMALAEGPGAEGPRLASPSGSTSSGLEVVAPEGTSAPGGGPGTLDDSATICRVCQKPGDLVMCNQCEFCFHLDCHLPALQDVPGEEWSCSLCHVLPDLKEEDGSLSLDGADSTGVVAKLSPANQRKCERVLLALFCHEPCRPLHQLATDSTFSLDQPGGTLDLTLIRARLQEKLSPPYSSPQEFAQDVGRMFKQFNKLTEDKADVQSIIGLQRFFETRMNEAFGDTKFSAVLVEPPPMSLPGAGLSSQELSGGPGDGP
Chain of Serine/threonine-protein kinase tousled-like 2 (Homo sapiens) (Q86UE8 whole entry, looked up): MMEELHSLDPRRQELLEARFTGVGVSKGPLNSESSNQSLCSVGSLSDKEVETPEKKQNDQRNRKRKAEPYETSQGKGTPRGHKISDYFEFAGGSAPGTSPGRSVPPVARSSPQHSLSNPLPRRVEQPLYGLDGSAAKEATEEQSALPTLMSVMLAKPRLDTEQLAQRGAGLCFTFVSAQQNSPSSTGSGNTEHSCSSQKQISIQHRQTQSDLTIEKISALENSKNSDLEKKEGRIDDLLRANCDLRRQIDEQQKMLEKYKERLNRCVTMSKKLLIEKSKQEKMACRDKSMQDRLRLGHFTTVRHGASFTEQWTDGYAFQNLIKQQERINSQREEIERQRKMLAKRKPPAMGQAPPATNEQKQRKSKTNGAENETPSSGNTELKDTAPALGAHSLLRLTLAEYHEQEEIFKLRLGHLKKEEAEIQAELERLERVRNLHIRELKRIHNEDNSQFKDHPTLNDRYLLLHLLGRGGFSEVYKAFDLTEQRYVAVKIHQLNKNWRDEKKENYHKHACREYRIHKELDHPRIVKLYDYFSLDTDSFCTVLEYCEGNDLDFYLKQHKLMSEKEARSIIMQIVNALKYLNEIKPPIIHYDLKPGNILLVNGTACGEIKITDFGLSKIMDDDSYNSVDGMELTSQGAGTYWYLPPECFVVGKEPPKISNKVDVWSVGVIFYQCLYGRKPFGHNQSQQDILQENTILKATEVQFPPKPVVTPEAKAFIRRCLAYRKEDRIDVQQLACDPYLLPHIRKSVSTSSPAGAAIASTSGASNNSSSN
Chain of Serine/threonine-protein kinase PRP4 homolog (Homo sapiens) (Q13523 whole entry, canonical isoform): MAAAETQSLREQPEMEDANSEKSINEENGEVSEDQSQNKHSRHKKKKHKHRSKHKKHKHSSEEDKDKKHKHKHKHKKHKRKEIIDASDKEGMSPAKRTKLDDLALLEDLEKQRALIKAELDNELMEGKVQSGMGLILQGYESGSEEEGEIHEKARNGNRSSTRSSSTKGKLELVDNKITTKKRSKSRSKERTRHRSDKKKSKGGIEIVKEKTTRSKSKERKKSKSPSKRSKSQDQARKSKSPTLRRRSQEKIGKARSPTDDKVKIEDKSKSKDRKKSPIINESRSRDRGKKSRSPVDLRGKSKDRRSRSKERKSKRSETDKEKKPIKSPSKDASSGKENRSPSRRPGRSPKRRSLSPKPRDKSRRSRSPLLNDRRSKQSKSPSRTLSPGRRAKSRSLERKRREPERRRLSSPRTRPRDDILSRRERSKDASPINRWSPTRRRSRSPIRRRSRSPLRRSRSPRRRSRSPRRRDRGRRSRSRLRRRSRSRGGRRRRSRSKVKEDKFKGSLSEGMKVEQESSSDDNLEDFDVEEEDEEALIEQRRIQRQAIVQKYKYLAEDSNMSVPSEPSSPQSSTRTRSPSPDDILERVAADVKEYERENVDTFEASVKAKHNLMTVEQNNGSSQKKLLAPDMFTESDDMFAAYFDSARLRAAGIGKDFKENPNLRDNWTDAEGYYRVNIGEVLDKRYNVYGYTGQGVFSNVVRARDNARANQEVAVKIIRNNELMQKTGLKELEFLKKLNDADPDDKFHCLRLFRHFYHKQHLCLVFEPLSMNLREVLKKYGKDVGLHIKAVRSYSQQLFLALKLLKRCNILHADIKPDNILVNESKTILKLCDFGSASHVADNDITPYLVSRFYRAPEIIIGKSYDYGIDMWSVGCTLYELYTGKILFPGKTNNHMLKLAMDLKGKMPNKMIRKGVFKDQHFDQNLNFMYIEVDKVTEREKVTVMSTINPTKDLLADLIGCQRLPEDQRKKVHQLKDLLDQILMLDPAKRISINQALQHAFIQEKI
Chain of Homeodomain-interacting protein kinase 1 (Q86Z02 whole entry, looked up): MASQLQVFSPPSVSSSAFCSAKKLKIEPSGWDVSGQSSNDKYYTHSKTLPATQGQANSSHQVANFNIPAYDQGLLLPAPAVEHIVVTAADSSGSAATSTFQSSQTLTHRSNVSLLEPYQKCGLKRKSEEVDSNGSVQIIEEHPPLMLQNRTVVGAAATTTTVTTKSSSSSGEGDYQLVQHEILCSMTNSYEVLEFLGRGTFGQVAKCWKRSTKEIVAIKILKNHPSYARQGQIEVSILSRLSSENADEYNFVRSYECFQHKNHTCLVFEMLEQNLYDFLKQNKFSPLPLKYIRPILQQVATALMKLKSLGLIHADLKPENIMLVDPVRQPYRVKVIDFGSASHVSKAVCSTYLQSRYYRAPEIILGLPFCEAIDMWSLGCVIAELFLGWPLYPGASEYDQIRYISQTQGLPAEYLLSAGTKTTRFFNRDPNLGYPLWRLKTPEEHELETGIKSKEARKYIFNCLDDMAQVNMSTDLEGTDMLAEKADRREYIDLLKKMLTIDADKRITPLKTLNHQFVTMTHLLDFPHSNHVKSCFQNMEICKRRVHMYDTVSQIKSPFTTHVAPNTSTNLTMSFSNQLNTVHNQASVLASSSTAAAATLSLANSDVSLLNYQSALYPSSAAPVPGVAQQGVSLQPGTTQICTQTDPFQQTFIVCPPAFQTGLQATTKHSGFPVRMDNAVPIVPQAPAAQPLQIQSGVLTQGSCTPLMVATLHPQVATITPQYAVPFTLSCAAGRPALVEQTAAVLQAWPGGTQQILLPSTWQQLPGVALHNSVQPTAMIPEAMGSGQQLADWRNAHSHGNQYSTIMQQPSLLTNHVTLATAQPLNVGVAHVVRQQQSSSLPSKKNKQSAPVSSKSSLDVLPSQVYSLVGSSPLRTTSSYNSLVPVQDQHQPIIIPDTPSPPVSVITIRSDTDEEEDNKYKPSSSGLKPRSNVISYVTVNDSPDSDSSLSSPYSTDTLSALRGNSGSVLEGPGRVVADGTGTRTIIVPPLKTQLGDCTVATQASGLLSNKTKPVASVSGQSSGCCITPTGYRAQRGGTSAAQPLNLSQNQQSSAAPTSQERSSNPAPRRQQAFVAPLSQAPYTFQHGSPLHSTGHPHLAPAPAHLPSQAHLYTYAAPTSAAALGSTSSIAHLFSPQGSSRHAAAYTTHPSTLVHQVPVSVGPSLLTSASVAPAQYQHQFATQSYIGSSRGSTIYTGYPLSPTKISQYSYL

Take `CCN(CC)CCCCNc1ncc2cc(-c3cc(OC)cc(OC)c3)c(NC(=O)NC(C)(C)C)nc2n1`: in assay [1], the % of control was 100%.

`CC[C@@H]1[C@H](F)C(=O)N[C@@H]1COc1nccc2cc(C(N)=O)c(OC)cc12` [ZIMLOVISERTIB] returned a % of inhibition in assay [2] of 85.9%. As to `C=CC(=O)Nc1cc(-n2c(=O)ccc3cnc4ccc(-c5ccc(NS(C)(=O)=O)cc5)cc4c32)ccc1C`, the % of control in assay [3] (at 1 µM) turned out to be 73%; in assay [3] (at 10 µM) it was 100%.

In assay [4], `Cc1cc(CN)cc(C)c1-c1ncn(C)c1-c1cncn1C` returned a dTM of -1.65 K. Turning to `CCC(=O)N1CCN(c2ccc(-n3c(=O)ccc4cnc5ccc(-c6cnc7ccccc7c6)cc5c43)cc2C(F)(F)F)CC1`, the % of control in assay [5] amounted to 62%; in assay [6], 63%.

`Cc1cc(C)cc([C@@H]2c3cc(C)ccc3NC(=O)CN2C(=O)c2ccc(Br)s2)c1`: the % of activity in assay [7] (at 1 µM) is 102%; in assay [7] (at 10 µM), 100%. As for `C=CC(=O)Nc1ccc(C(=O)Nc2[nH]nc3c2CN(C(=O)N[C@H](CN(C)C)c2ccccc2)C3(C)C)cc1`, the % of engagement in assay [8] stood at 4.3%.

The record behind these values is ChEMBL document CHEMBL5465560, “Selectivity Literature for EUbOPEN Chemogenomic Library” (2024).
